Measured values taken from patent US20140179779A1, “Deuterium Substituted Fumarate Derivatives” (Biogen IDEC MA Inc., priority 2012, published 2014).
Where a name gives a salt, the structure may show the parent alone.

Tests used:
[1] = tested on: patients with relapsing-remitting MS (RRMS); conditions: compared with placebo after two years of treatment; cited from earlier work
[2] = tested on: Nrf2; test: Nrf2 activation in DLD-1 ARE-luciferase reporter cell line; format: cell-based, Human
Experimental: (§1) Human cancer cell line DLD-1 and breast cancer cell line MCF7 reporter stable cell lines were generated by transfection with a firefly luciferase reporter construct harboring the luciferase cDNA cloned downstream of eight catenated copies of the antioxidant response element ([…] ID NO.:1). See Wang et al. Cancer Res. 2006; 66:10983-94. To measure Nrf2 activation in the ARE-luciferase reporter cell lines, the cells were plated in 96-well plates at 20-50 k cells/well 24 hours prior to stimulation with the test compounds. […] The reporter cells were harvested 24 hours-48 hours after addition of the compounds and lysed for detection of luciferase activity. Luciferase activity in the lysates was monitored using the Bright-Glo Luciferase Assay System of Promega and Tecan Genios Pro plate reader. Luciferase induction in the compound-treated cells was calculated as fold change over the baseline activity detected in control cultures treated with DMSO-containing media.

[3] = tested on: Nrf2; test: Nrf2 activation in MCF-7 ARE-luciferase reporter cell line; format: cell-based, Human
Experimental: as §1

[4] = DLD-1/ARE-E2, 24 hr Stimulation
[5] = DLD-1/ARE-E2, 48 hr Stimulation
[6] = MCF-7/ARE-D3, 24 hr Stimulation
[7] = MCF-7/ARE-D3, 48 hr Stimulation

Row | Compound | clinical relapses, accumulation of disability progression, and lesion number and volume [1] | Maximum Nrf2 Activation Fold Change [2, 4] [fold] | concentration at maximum fold change (@ [uM]) [2, 4] [µM] | Maximum Nrf2 Activation Fold Change [2, 5] [fold] | concentration at maximum fold change (@ [uM]) [2, 5] [µM] | Maximum Nrf2 Activation Fold Change [3, 6] [fold] | concentration at maximum fold change (@ [uM]) [3, 6] [µM] | Maximum Nrf2 Activation Fold Change [3, 7] [fold] | concentration at maximum fold change (@ [uM]) [3, 7] [µM]
1 | COC(=O)/C=C/C(=O)OC [DMF, dimethyl fumarate] | significantly reduced | – | – | – | – | – | – | – | –
2 | COC(=O)/C=C/C(=O)O [MMF, monomethyl fumarate] | – | 5 | 1000 | 12 | 1000 | 75 | 1000 | 94 | 750
3 | O=C(O)/C=C/C(=O)O.[2H]C([2H])([2H])OC(=O)/C=C/C(=O)O [Example 2, (^2H3)methyl fumaric acid ester] | – | 6 | 1000 | 14 | 1000 | 55 | 1000 | 81 | 1000
